Experimental data reported in paper PMC6100259, “Insights into Structure-Activity Relationships of 3-Arylhydrazonoindolin-2-One Derivatives for Their Multitarget Activity on β-Amyloid Aggregation and Neurotoxicity” (Molecules : A Journal of Synthetic Chemistry and Natural …, 2018).
Where two headings read alike, the source gives them in different places.

Key:
Aβ40 peptide = target: T1, Aβ40 peptide (Homo sapiens, UniProt P05067); assay: Inhibition of Aβ40 aggregation, ThT fluorescence-based method; assay type: biochemical; conditions: for inhibition at 100 µM: Aβ40, compound 100 µM, ThT fluorescence, read-out: % Inhibition @ 100 µM, Aβ antiaggregating activity; for fold less potent than compound 1 (Aβ40 aggregation): ratio of IC50s vs compound 1; for Aβ aggregation inhibition, result in words: Aβ40, ThT assay
T1 construct: we preferred using Aβ40 peptide
T1 sequence (P05067 672-711 limits assumed): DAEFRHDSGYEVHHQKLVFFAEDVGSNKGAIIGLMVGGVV
Method: In vitro inhibition of Aβ aggregation was assessed through a ThT fluorescence-based method, with the use of 2% 1,1,1,3,3,3-hexafluoroisopropanol (HFIP) as aggregation enhancer. In this medium-throughput assay, we preferred using Aβ40 peptide, being more manageable than Aβ42 and less prone to the formation of preaggregates. Samples of Aβ were co-incubated with test molecules in PBS at 100 µM concentration and the antiaggregating activities were measured after 2 h of incubation at 25 °C. For compounds showing >80% Aβ40 aggregation inhibition, IC50s were determined.
The spectrofluorimetric assays, measuring ThT fluorescence in the presence of Aβ, were done as previously described. Briefly, coincubation samples were prepared as described above (Section 2.2 and Section 2.3) in 96-well black, non-binding microplates (Greiner Bio-One GmbH, Frickenhausen, Germany). Fluorimetric reads were performed in a multiplate reader Infinite M1000 Pro (Tecan, Cernusco sul Naviglio, Italy). Each concentration point was run in triplicate. CD ellipticity measures were performed as detailed in ref. [20], following the increase of the negative band at 215 nm as indicative of β-sheet arrangement.

[1] = Lipophilicity by RP-HPLC (log k'w); assay type: physicochemical; conditions: RP-HPLC C18, MeOH/10 mM ammonium formate buffer pH 4.5, extrapolated to 100% aqueous mobile phase, 25 °C
Method: To place on a more quantitative basis the above SAR trends, the lipophilicity of a number of isatin arylhydrazone derivatives was measured by an RP-HPLC method. The polycratic capacity factors (log k’w) were determined (details in the Experimental Section). Lipophilicity descriptors (i.e., 1-octanol–water partition coefficients) were also calculated (CLOGPs) using two computational tools (Bio-Loom software, v. 1.7 and ACDLabs software, release 10.0). The ACDLabs software was used also for calculating descriptors of polarizability and size, namely molar refractivity (CMR) and molar volume (MV). The experimental lipophilicity parameters (log k’w), along with CMR and MV, are reported in Table 6 for 18 compounds achieving finite IC50s (<100 µM) in the Aβ aggregation assay.
The lipophilicity parameters were determined by an RP-HPLC technique. Methanol solutions of the investigated hydrazone compounds (0.5 mg/mL) were injected into an Agilent 1260 infinity HPLC system (Agilent Technologies Italia, Milan), equipped with a diode array detector (DAD), and a Phenomenex Kinetex C18 column (150 × 4.6 mm, 5 μ, Phenomenex Italy s.r.l., Castel Maggiore, BO, Italy), and eluted at different mobile phase compositions (0.05 increments of MeOH volume fraction in 10 mM ammonium formate buffer at pH 4.5, ranging ϕ between 0.85 and 0.30). All RP-HPLC measurements were carried out at 25 ± 1 °C, at a flow rate of 1.0 mL/min, and at 254 nm wavelength.
The logarithm of capacity factors (log k′ = log (tR − t0)/t0) of each compound at different mobile phase compositions have been calculated; tR represents the retention time of the solute and t0 is the column dead time, measured as the elution time of a KNO3 solution in MeOH. For each compound, the log k′ values increased linearly with decreasing MeOH volume fraction. Logarithms of capacity factors extrapolated to the 100% aqueous mobile phase (log k′w) were calculated from the linear regressions on at least five data points (r^2 > 0.975).

[2] = 2% HFIP, PBS, 2 h at 25 °C, mean ± SEM of three independent experiments
[3] = Aβ40 aggregation inhibition, read-out: pIC50, Aβ antiaggregating potency (converted)

Structure (SMILES) | inhibition at 100 µM (Aβ40 peptide; [2]) [%] | log k'w [1] | further results
COc1ccc2c(c1)/C(=N/Nc1ccc(C#N)cc1)C(=O)N2 [Compound 4, (Z)-4-(2-(5-Methoxy-2-oxoindolin-3-ylidene)hydrazinyl)benzonitrile] | 16 |  | 
COc1ccc2c(c1)/C(=N/Nc1ccc(C(F)(F)F)cc1)C(=O)N2 [Compound 5, (Z)-5-Methoxy-3-(2-(4-(trifluoromethyl)phenyl)hydrazono)indolin-2-one] | 57 |  | 
COc1ccc2c(c1)/C(=N/Nc1cc(C(F)(F)F)cc(C(F)(F)F)c1)C(=O)N2 [Compound 6, (Z)-3-(2-(3,5-bis(trifluoromethyl)phenyl)hydrazono)-5-methoxyindolin-2-one] |  | 6.29 | IC50 (Aβ40 peptide): 9.9 ± 0.8 µM; fold less potent than compound 1 (Aβ40 aggregation) (Aβ40 peptide): 25 fold
COc1ccc2c(c1)/C(=N/Nc1ccccn1)C(=O)N2 [Compound 7, (Z)-5-Methoxy-3-(2-(pyridin-2-yl)hydrazono)indolin-2-one] |  | 2.34 | IC50 (Aβ40 peptide): 90 ± 5 µM
COc1ccc2c(c1)/C(=N/Nc1cccc3ccccc13)C(=O)N2 [Compound 8, (Z)-5-Methoxy-3-(2-(naphthalen-1-yl)hydrazono)indolin-2-one] |  | 5.15 | IC50 (Aβ40 peptide; [3]): 28.2 µM
COc1ccc2c(c1)/C(=N/Nc1ccc3ccccc3n1)C(=O)N2 [Compound 9, (Z)-5-Methoxy-3-(2-(quinolin-2-yl)hydrazono)indolin-2-one] | 67 |  | 
COc1ccc2c(c1)/C(=N/Nc1cccc3cccnc13)C(=O)N2 [Compound 10, (Z)-5-Methoxy-3-(2-(quinolin-8-yl)hydrazono)indolin-2-one] | 58 |  | 
COc1ccc2c(c1)/C(=N/Nc1ccnc3cc(Cl)ccc13)C(=O)N2 [Compound 11, (Z)-3-(2-(7-Chloroquinolin-4-yl)hydrazono)-5-methoxy-indolin-2-one] | 14 |  | Aβ aggregation inhibition, result in words (Aβ40 peptide): very weak inhibitor
COc1ccc2c(c1)/C(=N/Nc1nc(CCl)cs1)C(=O)N2 [Compound 13, (Z)-3-(2-(4-(Chloromethyl)thiazol-2-yl)hydrazono)-5-methoxyindolin-2-one] |  | 3.95 | IC50 (Aβ40 peptide; [3]): 12.9 µM
COc1ccc2c(c1)/C(=N/Nc1nc(C)c(C)s1)C(=O)N2 [Compound 14, (Z)-3-(2-(4,5-Dimethylthiazol-2-yl)hydrazono)-5-methoxyindolin-2-one] | 43 |  | Aβ aggregation inhibition, result in words (Aβ40 peptide): very weak inhibitor
COc1ccc2c(c1)/C(=N/Nc1nc(-c3ccccc3)cs1)C(=O)N2 [Compound 15] |  | 5.10 | IC50 (Aβ40 peptide; [3]): 1.2 µM
COc1ccc2c(c1)/C(=N/Nc1nc(-c3cccc(O)c3)cs1)C(=O)N2 [Compound 16, (Z)-3-(2-(4-(3-Hydroxyphenyl)thiazol-2-yl)hydrazono)-5-methoxyindolin-2-one] |  | 4.58 | IC50 (Aβ40 peptide; [3]): 15.8 µM
COc1cccc(-c2csc(N/N=C3\C(=O)Nc4ccc(OC)cc43)n2)c1 [Compound 17, (Z)-5-Methoxy-3-(2-(4-(3-methoxyphenyl)thiazol-2-yl)hydrazono)indolin-2-one] |  | 5.29 | IC50 (Aβ40 peptide; [3]): 33.9 µM
COc1ccc2c(c1)/C(=N/Nc1nc(-c3cccc(Br)c3)cs1)C(=O)N2 [Compound 18, (Z)-3-(2-(4-(3-Bromophenyl)thiazol-2-yl)hydrazono)-5-methoxyindolin-2-one] |  | 5.67 | IC50 (Aβ40 peptide; [3]): 39.8 µM
COc1ccc2[nH]cc(/C=N/Nc3ccc(C(C)C)cc3)c2c1 [Compound 19] |  | 6.42 | IC50 (Aβ40 peptide): 41 ± 3 µM; fold less potent than compound 1 (Aβ40 aggregation) (Aβ40 peptide): 100 fold
COc1ccc2c(c1)/C(=N\N=C/c1ccc(C(C)C)cc1)C(=O)N2 [Compound 21, (Z)-3-((E)-(4-Isopropylbenzylidene)hydrazono)-5-methoxyindolin-2-one] |  | 4.82 | IC50 (Aβ40 peptide; Aβ40, ThT fluorescence, 2% HFIP, PBS, 2 h at 25 °C, mean ± SEM of three independent experiments, read-out: IC50 (µM), Aβ antiaggregating activity): 6.7 ± 0.2 µM
COc1ccc2c(c1)/C(=N\N=C/c1cccc(Cl)c1)C(=O)N2 [Compound 22, (Z)-3-((E)-(3-chlorobenzylidene)hydrazono)-5-methoxyindolin-2-one] |  | 4.21 | IC50 (Aβ40 peptide; [3]): 11 µM
COc1ccc2c(c1)C(=NNC(=O)c1cccc(Cl)c1)C(=O)N2 [Compound 23, 3-Chloro-N’-(5-methoxy-2-oxoindolin-3-ylidene)benzohydrazide] | 31 |  | Aβ aggregation inhibition, result in words (Aβ40 peptide): sharp drop of activity
COc1ccc2c(c1)/C(=N/N(C)c1ccc(C(C)C)cc1)C(=O)N2C [Compound 24, (Z)-3-(2-(4-Isopropylphenyl)-2-methylhydrazono)-5-methoxy-1-methylindolin-2-one] |  | 4.23 | IC50 (Aβ40 peptide; [3]): 11 µM; fold decrease in inhibition potency compared with 26 (Aβ40 peptide; vs non-methylated compound 26): more than 10 fold
COc1ccc2c(c1)/C(=N/Nc1ccc(C(C)C)cc1)C(=O)N2C [Compound 26, (Z)-3-(2-(4-Isopropylphenyl)hydrazono)-5-methoxy-1-methylindolin-2-one] |  | 5.96 | IC50 (Aβ40 peptide): 0.81 ± 0.11 µM
COc1ccc2c(c1)/C(=N/Nc1ccc(C(C)C)cc1)C(=O)N2Cc1ccccc1 [Compound 32, (Z)-1-Benzyl-3-(2-(4-isopropylphenyl)hydrazono)-5-methoxyindolin-2-one] |  | 7.44 | IC50 (Aβ40 peptide): 0.53 ± 0.1 µM
COc1ccc2c(c1)/C(=N/Nc1ccc(C(C)C)cc1)C(=O)N2CCc1ccccc1 [Compound 33, (Z)-3-(2-(4-Isopropylphenyl)hydrazono)-5-methoxy-1-phenethylindolin-2-one] |  | 7.24 | IC50 (Aβ40 peptide): 0.61 ± 0.03 µM
COc1ccc2c(c1)/C(=N/Nc1ccc(C(C)C)cc1)C(=O)N2CCCc1ccccc1 [Compound 34, (Z)-3-(2-(4-Isopropylphenyl)hydrazono)-5-methoxy-1-(3-phenylpropyl)indolin-2-one] |  | 7.87 | IC50 (Aβ40 peptide): 0.83 ± 0.2 µM
CCCCc1ccc2c(c1)C(=NNc1ccc(C(C)C)cc1)C(=O)N2 [Compound 36, 5-Butyl-3-(2-(4-isopropylphenyl)hydrazono)indolin-2-one] | 55 ± 1 |  | 
CC(C)c1ccc(NN=C2C(=O)Nc3c(Br)cccc32)cc1 [Compound 37, 7-Bromo-3-(2-(4-isopropylphenyl)hydrazono)indolin-2-one] | < 5 |  | Aβ aggregation inhibition, result in words (Aβ40 peptide): complete loss of activity
CC(C)c1ccc(NN=C2C(=O)Nc3ccc(S(=O)(=O)O)cc32)cc1 [Compound 38, Sodium 3-(2-(4-isopropylphenyl)hydrazono)-2-oxoindolin-5-sulfonate] | 35 ± 4 |  | 
CC(C)c1ccc(N/N=C2\C(=O)Nc3cc4c(cc32)OCO4)cc1 [Compound 39, (Z)-7-(2-(4-isopropylphenyl)hydrazono)-5H-[1,3]dioxolo[4,5-f]indol-6(7H)-one] | 70 ± 4 |  | 
